Experimental data published in US6894185B2, “Substituted chiral allosteric hemoglobin modifiers” (Allós Therapeutics, Inc., priority 1999, dated 2005).
“And” between values parts separate entries of the source, which are not always exact repeats. Identical values can stand only once.

How the values were obtained:
hemoglobin = biological target: T1, hemoglobin (Homo sapiens, UniProt P68871+P69905); experiment: In vitro whole blood studies (multi-point tonometry and blood gas analysis); type: cell-based; conditions: for ΔP50 ± S.D. (P50 effector − P50control) / P50e (P50 value in the presence of the effector): Table VI, 2.5 mM Hb, 5.0 mM effector; for P50e (P50 value in the presence of the effector): single runs, DMSO stock
T1 construct: The whole blood samples were collected in heparinized tubes from healthy volunteers; from tissue; host or cells: human whole blood (heparinized) from healthy volunteers
Method: (§1) Structure-allosteric activity relationships were determined from the synthetic chiral effectors comparing the shift in the oxygen binding curve of Hb solutions using a Hemox-Analyzer. In vitro biological activity testing in the presence of plasma proteins was also performed on selected enantiomers and racemates (multi-point tonometry and blood gas analysis) to screen for candidates with potential clinical use. SAR studies compared the degree in shift in P50 values, i.e., the partial pressure of molecular oxygen necessary to half-saturate hemoglobin. An effector that decreases Hb oxygen affinity increases the P50 value relative to the control. Thus, the activity or potency of each analog could be expressed by the ratio P50 (effector)/P50(control). Tables and II and III summarize the p50 values obtained using human whole blood, while Tables IV and V summarize the P50 and the Hill coefficient values (n50) at half-saturation obtained using Hemox-analyzer. The slope of the log of the oxygen binding curves is known as the Hill coefficient. The Hill coefficient measures the degree of cooperativity in binding for an allosteric protein, the normal range for human blood is 2.7-3.2. Table VI presents the results from the whole blood studies given as a ΔP50 and Hill coefficient (n50) values for the enantiomers and racemates.
The whole blood samples were collected in heparinized tubes from healthy volunteers and stored over ice. The sodium salts of the compounds were prepared as described earlier. A 200 mM stock solution of the effector was prepared in DMSO. A 5.0 mM test solution was prepared from 50 μL of the 200 mM test solution and 1950 μL of whole blood. The blood samples were incubated in IL 237 tonometers (Instrumentation Laboratories, Inc. Lexington, Mass.) for approximately 10-12 min at 37° C. and equilibrated at three separate concentrations of O2 (20%, 40%, and 60%). After equilibration at each concentration of O2, a sample was removed via syringe and aspirated into a IL 1420 Automated Blood Gas Analyzer (Instrumentation Laboratories, Inc. Lexington, Mass.) and a IL 482 and IL 682 Co-oximeter (Instrumentation Laboratories, Inc. Lexington, Mass.) to determine the pH, pCO2, pO2 and the hemoglobin oxygen saturation values (sO2), respectively. The measured values for pO2 and sO2 at each oxygen saturation level were then subjected to a non-linear regression analysis using the program Scientist (Micromath, Salt Lake City, Utah) to calculate the P50 and Hill coefficient values.

[1] = biological target: T2, purified stripped human adult hemoglobin (Homo sapiens, UniProt P68871+P69905); experiment: Hemoglobin solution oxygen equilibrium studies (HEMOX-analyzer); type: biochemical; conditions: Table IV; 0.5 mM effector, 100 mM bis-Tris buffer, pH 7.2
T2 construct: using purified stripped human adult hemoglobin as described previously; from tissue

[2] = biological target: T2, purified stripped human adult hemoglobin; experiment: as above; type: biochemical; conditions: Table IV, 0.5 mM effector, pH 7.2; for n50 (Hill coefficient at 50% saturation): n50 control 2.7; for P50e/P50c: ratio to P50 control with no effector (5.0 mmHg)
Method: as §1, with “Tables and II and III summarize the p50 values obtained using human whole blood, while Tables IV and V summarize the P50 and the Hill coefficient values (n50) at half-saturation obtained using Hemox-analyzer.” left out, “2.7-3.2.” for “2.7-3.2. Table VI presents the results from the whole blood studies given as a ΔP50 and Hill coefficient (n50) values for the enantiomers and racemates.”
The effectors were prepared as 10 mM stock solutions in 100 mM NaCl bis-Tris buffer, pH 7.2. After the addition of an excess of NaHCO3, the solution was warmed to 60° C. and stirred for several hours. The solutions were back titrated carefully to pH 7.2 at 25° C. prior to use. Oxygen equilibrium measurements were performed with the HEMOX-analyzer (TCS Medical products, Southampton, Pa.) using purified stripped human adult hemoglobin as described previously. 4 mL of buffer, 100 mM NaCl, 50 mM bis-Tris at pH 7.2, is added to a cuvette in the HEMOX, followed by 200 μL of the 10 mM effector stock solution. Hemoglobin is then added to achieve a final Hb concentration of […] on heme basis. Catalase (20 μg/mL) and 50 mM EDTA were added to limit oxidation of the hemes. […] The saturation of hemoglobin was determined spectrophotometrically with a dual wavelength spectrophotometer (577 nm and 586.2 nm). The solution was stirred constantly during the 45-60 min recordings. The P50 and n50 values were calculated by linear regression analysis from data points comprised between 40 and 60% oxygen saturation.

T1 sequence (P69905 2-142 limits assumed): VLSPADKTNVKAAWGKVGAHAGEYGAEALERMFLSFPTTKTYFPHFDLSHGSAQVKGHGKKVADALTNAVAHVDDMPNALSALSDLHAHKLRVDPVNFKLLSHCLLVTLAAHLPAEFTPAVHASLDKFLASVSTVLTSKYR
T1 sequence (P68871 2-147 limits assumed): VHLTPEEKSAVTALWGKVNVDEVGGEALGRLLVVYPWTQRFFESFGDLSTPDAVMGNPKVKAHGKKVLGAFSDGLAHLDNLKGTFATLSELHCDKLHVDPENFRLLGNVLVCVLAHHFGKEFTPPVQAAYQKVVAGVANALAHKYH
T2 sequence (P69905 2-142 limits assumed): as the sequence (P69905 2-142 limits assumed) above
T2 sequence (P68871 2-147 limits assumed): as the sequence (P68871 2-147 limits assumed) above

Row | SMILES | Whole Blood Δp50 mm Hg (hemoglobin; Table III) [mm Hg] | melting point [°C] | further results
1 | Cc1cc(Cl)cc(NC(=O)Cc2ccc(OC3(C(=O)O)CCC(C)C3)cc2)c1 (centres unmarked) [Compound 9, 1-[4-[[(3-chloro-5-methylanilino)carbonyl]methyl]phenoxy]-3-methylcyclopentane carboxylic acid] | – | – | Whole Blood Δp50 mm Hg (hemoglobin; Table II): 15 mm Hg; P50e (oxygen pressure at which Hb is 50% saturated with oxygen in the presence of the effector) [1]: 14 mmHg; n50 (Hill coefficient at 50% saturation) [2]: 2.4; P50e/P50c [2]: 2.8
2 | COCC(C)(Oc1ccc(CC(=O)Nc2cc(C)cc(C)c2)cc1)C(=O)O (centres unmarked) [Compound 10, 2-[4-[[(3,5-dimethylanilino)carbonyl]methyl]phenoxy]-3-methoxy-2-methylpropanoic acid] | – | – | Whole Blood Δp50 mm Hg (hemoglobin; Table II): 24 mm Hg; P50e (oxygen pressure at which Hb is 50% saturated with oxygen in the presence of the effector) [1]: 8.4 mmHg; n50 (Hill coefficient at 50% saturation) [2]: 2.4; P50e/P50c [2]: 1.7
3 | Cc1cc(C)cc(NC(=O)Cc2ccc(OC3(C(=O)O)CCCC(C)C3)cc2)c1 (centres unmarked) [Compound 11, 1-[4-[[(3,5-dimethylanilino)carbonyl]methyl]phenoxy]-3-methylcyclohexane carboxylic acid] | – | – | Whole Blood Δp50 mm Hg (hemoglobin; Table II): 16 mm Hg; P50e (oxygen pressure at which Hb is 50% saturated with oxygen in the presence of the effector) [1]: 10 mmHg; n50 (Hill coefficient at 50% saturation) [2]: 2.5; P50e/P50c [2]: 2.1
4 | Cc1cc(C)cc(NC(=O)Cc2ccc(OC3(C(=O)N[C@@H](C)C(=O)O)CCCC3)cc2)c1 [Compound 39, 1-[4-(((3,5-dimethylanilino)carbonyl)methyl)phenoxy] cyclopentanecarbonyl-L-alanine] | 22 | 117 to 118 | –
5 | Cc1cc(C)cc(NC(=O)Cc2ccc(OC3(C(=O)N[C@H](CC(C)C)C(=O)O)CCCC3)cc2)c1 [Compound 40, 1-[4-(((3,5-dimethylanilino)carbonyl)methyl)phenoxy]cyclopentanecarbonyl-D-leucine] | 40 | 119 to 120 | –
6 | Cc1cc(C)cc(NC(=O)Cc2ccc(OC3(C(=O)N[C@@H](CC(C)C)C(=O)O)CCCC3)cc2)c1 [Compound 41, 1-[4-(((3,5-dimethylanilino)carbonyl)methyl)phenoxy]cyclopentanecarbonyl-L-leucine] | 15 | 119 to 120 | –
7 | Cc1cc(C)cc(NC(=O)Cc2ccc(OC3(C(=O)N[C@H](C(=O)O)C(C)C)CCCC3)cc2)c1 [Compound 43, 1-[4-(((3,5-dimethylanilino)carbonyl)methyl)phenoxy]cyclopentanecarbonyl-L-valine] | 30 | 104 to 106 | –
8 | Cc1cc(C)cc(NC(=O)Cc2ccc(OC3(C(=O)N[C@H](Cc4ccccc4)C(=O)O)CCCC3)cc2)c1 [Compound 44, 1-[4-(((3,5-dimethylanilino)carbonyl)methyl)phenoxy]cyclopentanecarbonyl-D-phenylalanine] | 38 | 106 to 108 | –
9 | Cc1cc(C)cc(NC(=O)Cc2ccc(OC3(C(=O)N[C@H](Cc4c[nH]c5ccccc45)C(=O)O)CCCC3)cc2)c1 [Compound 46, 1-[4-(((3,5-dimethylanilino)carbonyl)methyl)phenoxy]cyclopentanecarbonyl-D-tryptophan] | 20 | 83 to 84 | –
10 | Cc1cc(C)cc(NC(=O)Cc2ccc(OC3(C(=O)N[C@H](CO)C(=O)O)CCCC3)cc2)c1 [Compound 49, 1-[4-(((3,5-dimethylanilino)carbonyl)methyl)phenoxy]cyclopentanecarbonyl-D-serine] | 16 | 58 to 59 | –
11 | Cc1cc(C)cc(NC(=O)Cc2ccc(OC3(C(=O)N[C@@H](CO)C(=O)O)CCCC3)cc2)c1 [Compound 50, 1-[4-(((3,5-dimethylanilino)carbonyl)methyl)phenoxy]cyclopentanecarbonyl-L-serine] | 5 | 58 to 59 | –
12 | CSCC[C@@H](NC(=O)C1(Oc2ccc(CC(=O)Nc3cc(C)cc(C)c3)cc2)CCCC1)C(=O)O [Compound 51, 1-[4-(((3,5-dimethylanilino)carbonyl)methyl)phenoxy]cyclopentanecarbonyl-D-methionine] | 27 | 54 to 55 | –
13 | CC[C@H](C)[C@H](NC(=O)C1(Oc2ccc(CC(=O)Nc3cc(C)cc(C)c3)cc2)CCCC1)C(=O)O [Compound 53, 1-[4-(((3,5-dimethylanilino)carbonyl)methyl)phenoxy]cyclopentanecarbonyl-L-isoleucine] | 13 | 127 to 128 | –
14 | Cc1cc(C)cc(NC(=O)Cc2ccc(OC3(C(=O)N[C@@H](Cc4ccc(O)cc4)C(=O)O)CCCC3)cc2)c1 [Compound 54, 1-[4-(((3,5-dimethylanilino)carbonyl)methyl)phenoxy]cyclopentanecarbonyl-L-tyrosine] | 21 | 74 to 75 | –
15 | Cc1cc(C)cc(NC(=O)Cc2ccc(OC3(C(=O)N4CCC[C@H]4C(=O)O)CCCC3)cc2)c1 [Compound 56, 1-[4-(((3,5-dimethylanilino)carbonyl)methyl)phenoxy]cyclopentanecarbonyl-L-proline] | 17 | 71 to 72 | –
16 | Cc1cc(C)cc(NC(=O)Cc2ccc(OC3(C(=O)N[C@H](C(=O)O)[C@@H](C)O)CCCC3)cc2)c1 [Compound 58, 1-[4-(((3,5-dimethylanilino)carbonyl)methyl)phenoxy]cyclopentanecarbonyl-L-threonine] | 13 | 64 to 66 | –
17 | Cc1cc(C)cc(NC(=O)Cc2ccc(OC3(C(=O)N[C@@H](CCCCN)C(=O)O)CCCC3)cc2)c1 [Compound 62, 1-[4-(((3,5-dimethylanilino)carbonyl)methyl)phenoxy]cyclopentanecarbonyl-L-lysine] | −0.6 | 124 to 125 | –
18 | Cc1cc(C)cc(NC(=O)Cc2ccc(OC3(C(=O)O)CCCC3)cc2)c1 [JP7, 1-[4-(((3,5-dimethylanilino)carbonyl)methyl)phenoxy]cyclopentanecarboxylic acid, reference compound] | – | – | ΔP50 ± S.D. (P50 effector − P50control) (hemoglobin): 42.3 ± 4.9 mmHg; P50e (P50 value in the presence of the effector) (hemoglobin): 74.7 mmHg and 67.7 mmHg; P50e (oxygen pressure at which Hb is 50% saturated with oxygen in the presence of the effector) [1]: 26 mmHg; n50 (Hill coefficient at 50% saturation) [2]: 2.4; P50e/P50c [2]: 5.1
19 | Cc1cc(C)cc(NC(=O)Cc2ccc(OC(C)(C)C(=O)O)cc2)c1 [RSR13, reference compound] | – | – | ΔP50 ± S.D. (P50 effector − P50control) (hemoglobin): 45.2 ± 2.2 mmHg; P50e (P50 value in the presence of the effector) (hemoglobin): 76.5 mmHg and 73.4 mmHg; P50e (oxygen pressure at which Hb is 50% saturated with oxygen in the presence of the effector) [1]: 23 mmHg; n50 (Hill coefficient at 50% saturation) [2]: 2.3; P50e/P50c [2]: 4.7
